Measurements from patent publication US20040198756A1, “Medicaments” (priority 2001, published 2004).
Where a name gives a salt, the structure may show the parent alone. Read-outs that look alike come from different tables or passages of the source.

Experiment: MIC of test compounds against various organisms
Type: cell-based
Experimental: The MIC (jig/ml) of test compounds against various organisms was determined:
S. aureus Oxford, S. aureus WCUH29, S. pneumoniae 1629, S. pneumoniae N1387, S. pneumoniae ERY 2, E. faecalis I, E. faecalis 7, H. influenzae Ql, H. influenzae NEMC1, M. catarrhalis 1502, E. coli 7623.

[1] = read-out: MIC versus all these organisms
[2] = bound holds for all 11 organisms of the panel, read-out: MIC versus all these organisms
[3] = bound holds only for some of the 11 organisms of the panel, read-out: MIC versus some of these organisms

Row | MIC [2] | Compound | MIC [1] | further results
1 | – | COc1ccc2nccc(NC(=O)C3(O)CCN(CC(O)c4ccc5c(c4)OCCO5)CC3)c2n1 (racemic) [Example 13, 1-[2-(2,3-Dihydro-benzo[1,4]dioxin-6-yl)-2-(R,S)-hydroxy-ethyl]-4-hydroxy-piperidine-4-carboxylic acid (6-methoxy-[1,5]naphthyridin-4-yl)-amide dihydrochloride] | ≤ 16 µg/mL | –
2 | ≤ 4 µg/mL | COc1ccc2nccc(NC(=O)[C@@]3(O)CCN(CCc4ccc5c(c4)NC(=O)CS5)C[C@@H]3O)c2n1 (racemic) [Example 18, (3S/R,4R/S)-3,4-Dihydroxy-1-[2-(3-oxo-3,4-dihydro-2H-benzo[1,4]thiazin-6-yl)-ethyl]-piperidine-4-carboxylic acid (6-methoxy-[1,5]naphthyridin-4-yl)amide dihydrochloride] | – | –
3 | ≤ 4 µg/mL | COc1ccc2nccc(NC(=O)C3(O)CCN(C[C@H](O)c4ccc5c(n4)NC(=O)CS5)CC3)c2n1 (racemic) [Example 22, 4-Hydroxy-1-[2-(RS)-2-hydroxy-2-(3-oxo-3,4-dihydro-2H-pyrido[3,2-b][1,4]thiazin-6-yl)-ethyl]-piperidine-4-carboxylic acid (6-methoxy-[1,5]naphthyridin-4-yl)amide dihydrochloride] | – | –
4 | ≤ 4 µg/mL | COc1ccc2nccc(NC(=O)C3(OC)CCN(C[C@H](O)c4ccc5c(n4)NC(=O)CS5)CC3)c2n1 (racemic) [Example 23, 4-Methoxy-1-[2-(RS)-2-hydroxy-2-(3-oxo-3,4-dihydro-2H-pyrido[3,2-b][1,4]-thiazin-6-yl)-ethyl]-piperidine-4-carboxylic acid (6-methoxy-[1,5]naphthyridinyl)amide dihydrochloride] | – | –
5 | ≤ 4 µg/mL | COc1ccc2nccc(CCC3(O)CCN(C[C@H](O)c4ccc5c(c4)NC(=O)CS5)CC3)c2n1 (racemic) [Example 27, 6-((R,S)-1-Hydroxy-2-(4-hydroxy-4-[2-(6-methoxy-[1,5]naphthyridin-4-yl)ethyl]piperidin-1yl}ethyl)-4H-benzo[1,4]thiazin-3-one] | – | –
6 | – | COc1ccc2nccc(NC(=O)C3(C)CCN(CCc4ccc5c(c4)NC(=O)CS5)CC3)c2n1 [Example 1, 4-Methyl-1-[2-(3-oxo-3,4-dihydro-2H-benzo[1,4]thiazin-6-yl)-ethyl]-piperidine-4-carboxylic acid (6-methoxy-[1,5]naphthyridin-4-yl)amide oxalate] | ≤ 4 µg/mL | –
7 | – | COc1ccc2nccc(NC(=O)C3(N)CCN(CCc4ccc5c(c4)NC(=O)CS5)CC3)c2n1 [Example 2, 4-Amino-1-[2-(3-oxo-3,4-dihydro-2H-benzo[1,4]thiazin-6-yl)-ethyl]-piperidine-4-carboxylic acid (6-methoxy-[1,5]naphthyridin-4-yl)amide dioxalate] | ≤ 4 µg/mL | –
8 | – | COc1ccc2nccc(NC(=O)C3(O)CCN(CCc4ccc5c(c4)OCO5)CC3)c2n1 [Example 3, 1-(2-Benzo[1,3]dioxol-5-yl-ethyl)-4-hydroxy-piperidine-4-carboxylic acid (6-methoxy-[1,5]naphthyridin-4yl)amide oxalate] | ≤ 16 µg/mL | –
9 | – | COc1ccc2nccc(NC(=O)C3(C)CCN(CCc4ccc5c(c4)OCO5)CC3)c2n1 [Example 4, 1-(2-Benzo[1,3]dioxol-5-yl-ethyl)4-methylpiperidine-4-carboxylic acid (6-methoxy-[1,5]naphthyridin-4-yl)-amide oxalate] | ≤ 16 µg/mL | –
10 | – | COc1ccc2nccc(NC(=O)C3(O)CCN(CCc4ccc5c(c4)NC(=O)CS5)CC3)c2n1 [Example 5, 4-Hydroxy-1-[2-(3-oxo-3,4-dihydro-2H-benzo[1,4]thiazin-6-yl)-ethyl]-piperidine-4-carboxylic acid (6-methoxy-[1,5]naphthyridin-4-yl)-amide oxalate] | ≤ 64 µg/mL | –
11 | – | COc1ccc2nccc(NC(=O)C3(C(=O)O)CCN(CCc4ccc5c(c4)NC(=O)CS5)CC3)c2n1 [Example 6, 4-(6-Methoxy-[1,5]naphthyridin-4-ylcarbamoyl)-1-[2-(3-oxo-3,4-dihydro-2H-benzo[1,4]thiazin-6-yl)-ethyl]-piperidine-4-carboxylic acid] | – | MIC [3]: ≤ 64 µg/mL
12 | ≤ 16 µg/mL | COc1ccc2nccc(N3CCC4(CCN(C[C@H](O)c5ccc6c(c5)NC(=O)CO6)CC4)C3=O)c2n1 [Example 7, 6-{1-R,S-Hydroxy-2-[2-(6-methoxy-[1,5]naphthyridin-4-yl)-1-oxo-2,8-diaza-spiro[4.5]dec-8-yl]-ethyl)4H-benzo[1,4]oxazin-3-one oxalate] | – | –
13 | – | COc1ccc2nccc(NC(=O)C3(O)CCN(CC(=O)c4ccc5c(c4)NC(=O)CS5)CC3)c2n1 [Example 8, 4-Hydroxy-1-[2-oxo-2-(3-oxo-3,4-dihydro-2H-benzo[1,4]thiazin-6-yl)-ethyl]-piperidine-4-carboxylic acid (6-methoxy-[1,5]naphthyridin-4-yl)-amide oxalate] | ≤ 64 µg/mL | –
14 | ≤ 4 µg/mL | COc1ccc2nccc(NC(=O)C3(O)CCN(CC(O)c4ccc5c(c4)NC(=O)CS5)CC3)c2n1 (centres unmarked) [Example 9, 4-Hydroxy-1-[2-R,S-hydroxy-2-(3-oxo-3,4-dihydro-2H-benzo[1,4]thiazin-6-yl)-ethyl]-piperidine-4-carboxylic acid (6-methoxy-[1,5]naphthyridin-4-yl)amide oxalate] | – | –
15 | – | COc1ccc2nccc(NC(=O)C3(CO)CCN(CCc4ccc5c(c4)NC(=O)CS5)CC3)c2n1 [Example 10, 4-Hydroxymethyl-1-[2-(3-oxo-3,4-dihydro-2H-benzo[1,4]thiazin-6-yl)-ethyl]-piperidine-4-carboxylic acid (6-methoxy-[1,5]naphthyridin-4-yl)-amide oxalate] | ≤ 4 µg/mL | –
16 | ≤ 16 µg/mL | COc1ccc2nccc(NC(=O)C3(N)CCN(CC(O)c4cc5c(cc4F)SCC(=O)N5)CC3)c2n1 (centres unmarked) [Example 11, 4-Amino-1-[2-(7-fluoro-3-oxo-3,4-dihydro-2H-benzo[1,4]thiazin-6-yl)-2-R,S-hydroxy-ethyl]-piperidine-4-carboxylic acid (6-methoxy-[1,5]naphthyridin-4-yl)-amide dioxalate] | – | –
17 | ≤ 4 µg/mL | COc1ccc2nccc(NC(=O)C3(N)CCN(CC(O)c4ccc5c(c4)NC(=O)CS5)CC3)c2n1 (centres unmarked) [Example 12, 4-Amino-1-[2-R,S-hydroxy-2-(3-oxo-3,4-dihydro-2H-benzo[1,4]thiazin-6-yl)-ethyl]-piperidine-4-carboxylic acid (6-methoxy-[1,5]naphthyridinyl)-amide dihydrochloride] | – | –
18 | – | COc1ccc2nccc(NC(=O)C3(O)CCN(CCc4cc5c(nn4)SCC(=O)N5)CC3)c2n1 [Example 14, 4-Hydroxy-1-[2-(6-oxo-6,7-dihydro-5H-pyridazino[3,4-b][1,4]thiazin-3-yl)-ethyl]-piperidine-4-carboxylic acid (6-methoxy-[1,5]naphthyridin-4-yl)-amide dihydrochloride] | ≤ 4 µg/mL | –
19 | ≤ 4 µg/mL | COc1ccc2nccc(NC(=O)C3(OC)CCN(CC(O)c4ccc5c(c4)NC(=O)CS5)CC3)c2n1 (centres unmarked) [Example 16, 1-[2-R,S-Hydroxy-2-(3-oxo-3,4-dihydro-2H-benzo[1,4]thiazin-6-yl)-ethyl]-4-methoxy-piperidine-4-carboxylic acid (6-methoxy-[1,5]naphthyridin-4-yl)-amide dihydrochloride] | – | –
20 | ≤ 16 µg/mL | COc1ccc2nccc(NC(=O)C3(OC)CCN(C[C@@H](O)c4ccc5c(c4)OCCO5)CC3)c2n1 [Example 17, 1-[2-(2,3-Dihydro-benzo[1,4]dioxin-6-yl)-2-R,S-hydroxy-ethyl]-4-methoxy-piperidine-4-carboxylic acid (6-methoxy-[1,5]naphthyridin-4-yl)-amide dihydrochloride] | – | –
21 | – | COc1ccc2nccc(NC(=O)[C@@]3(O)CCN(CCc4ccc5c(c4)NC(=O)CS5)C[C@@H]3OC)c2n1 [Example 19, 4-R/S-Hydroxy-3-S/R-methoxy-1-[2-(3-oxo-3,4-dihydro-2H-benzo[1,4]thiazin-6-yl)-ethyl]-piperidine-4-carboxylic acid (6-methoxy-[1,5]naphthyridinyl)-amide dihydrochloride] | – | MIC [3]: ≤ 64 µg/mL
22 | – | COc1ccc2nccc(NC(=O)C3(C#N)CCN(CCc4ccc5c(c4)NC(=O)CS5)CC3)c2n1.Cl.Cl [Example 20, 4-Cyano-1-[2-(3-oxo-3,4-dihydro-2H-benzo[1,4]thiazin-6-yl)-ethyl]-piperidine-4-carboxylic acid (6-methoxy-[1,5]naphthyridin-4-yl)-amide dihydrochloride] | ≤ 64 µg/mL | –
23 | ≤ 16 µg/mL | COc1ccc2nccc(NC(=O)C3(C(N)=O)CCN(C[C@@H](O)c4ccc5c(c4)OCCO5)CC3)c2n1 [Example 21, 1-[2-(2,3-Dihydro-benzo[1,4]dioxin-6-yl)-2-R,S-hydroxy-ethyl]-piperidine-4,4-dicarboxylic acid amide (6-methoxy-[1,5]naphthyridin-4-yl)-amide dihydrochloride] | – | –
24 | ≤ 4 µg/mL | COc1ccc2nccc(NC(=O)C3(O)CCN(CCc4cc5c(cn4)OCCO5)CC3)c2n1 [Example 25, 1-[2-(2,3-Dihydro-[1,4]dioxino[2,3-c]pyridin-7-yl)-ethyl]4-hydroxy-piperidine-4-carboxylic acid(6-methoxy-[1,5]naphthyridin-4-yl)-amide hydrochloride] | – | –
25 | ≤ 4 µg/mL | COc1cc(F)c2nccc(NC(=O)C3(O)CCN(CCc4cc5c(cn4)OCCO5)CC3)c2c1 [Example 26, 1-[2-(2,3-Dihydro-[1,4]dioxino[2,3-c]pyridin-7-yl)-ethyl]-4-hydroxy-piperidine-4-carboxylic acid(8-fluoro-6-methoxy-quinolin-4-yl)-amide hydrochloride] | – | –
26 | ≤ 4 µg/mL | COc1ccc2nccc(CCC3(O)CCN(CCc4ccc5c(c4)NC(=O)CS5)CC3)c2n1 [Example 28, 6-(2-{4-hydroxy-4-[2-(6-methoxy-[1,5]naphthyridin-4-yl)ethyl]piperidin-1yl}ethyl)-4H-benzo[1,4]thiazin-3-one] | – | –
